“Also recorded” adds a separate entry of the source.
Test system: patients with refractory metastatic colorectal cancer (mCRC)
Test: PFS, OS and disease control in the control cohort of refractory mCRC patients receiving regorafenib (n=52, Italy), by baseline characteristics and SNP genotype
Type: in vivo, human
Conditions: for Median OS (months) / Median PFS (months): ITA REGORA cohort; for Disease Control CR/PR/SD, patients n (%) / Median OS (95% CI) / Median PFS (95% CI) / PD, patients n (%) / HR OS (95% CI) / HR PFS (95% CI) / Median OS / Median PFS / HR OS / HR PFS: control cohort
Description: All patients underwent the treatment in salvage-line setting.
Patients in the control group received 160 mg regorafenib (Bayer, Leverkusen, Germany) once daily from day 1 to 21 every 4 weeks. Doses were adjusted based on haematological and non-haematological adverse events at the treating physician's discretion in accordance with the manufacturer's recommendations. The analyses were approved by the University of Southern California (USC) Institutional Review Board of Medical Sciences and conducted at the USC/Norris Comprehensive Cancer Center in accordance with the Declaration of Helsinki and Good Clinical Practice Guidelines.
Genomic DNA was extracted from peripheral whole blood in patients of all cohorts using the QIAmp Kit (Qiagen, Valencia, Calif., USA) according to the manufacturer's protocol (www.qiagen.com). The candidate SNPs were genotyped using PCR-based direct DNA sequence analysis by ABI 3100A Capillary Genetic Analyzer and Sequencing Scanner v1.0 (Applied Biosystems). Amplification of extracted DNA was carried out using both forward and reverse primers for each gene polymorphism as shown in Table 1. […] The investigators analyzing SNPs were blinded to the clinical data of the study patients.
The primary endpoint in this study was progression-free survival (PFS), and the secondary endpoints were overall survival (OS) and disease control rate (DCR). PFS was calculated from the date of starting treatment to the first observation of disease progression or death from any cause. If a patient had no disease progression or death, PFS was censored at the date of last follow up. OS was calculated from the date of starting treatment until the date of death from any cause or the date of the last follow-up, at which point OS was censored. The disease control rate (DCR) was defined as the proportion of patients who achieved a stable disease (SD) or […] according to RECISTv1.1. Chi-square test was used to examine the difference in baseline patient characteristics among the three cohorts. Allelic distribution of all SNPs by ethnicity for deviation from Hardy-Weinberg equilibrium and the allelic frequencies of SNPs were tested using the Chi-square tests with one degree of freedom. The associations between candidate SNPs and disease control, and toxicities were examined using contingency tables and Fisher's exact test. The associations of SNPs with PFS and OS were analysed using Kaplan-Meier curves and the log-rank test. Because the true mode of inheritance of candidate SNPs was not established yet, a codominant or dominant genetic model if appropriate was considered.
All patients underwent the treatment in salvage-line setting. […] In all patients, adverse events were graded according to the Common Terminology Criteria for Adverse Events, version 4.0.
Patients in the control group received 160 mg regorafenib (Bayer, Leverkusen, Germany) once daily from day 1 to 21 every 4 weeks. Doses were adjusted based on haematological and non-haematological adverse events at treating physician's discretion in accordance with the manufacturer's recommendations. The analyses were approved by the University of Southern California (USC) Institutional Review Board of Medical Sciences and conducted at the USC/Norris Comprehensive Cancer Center in accordance with the Declaration of Helsinki and Good Clinical Practice Guidelines.
Genomic DNA was extracted from peripheral whole blood in patients of all cohorts using the QIAmp Kit (Qiagen, Valencia, Calif., USA) according to the manufacturer's protocol (www.qiagen.com). The candidate SNPs were tested using PCR-based direct DNA sequence analysis by ABI 3100A Capillary Genetic Analyzer and Sequencing Scanner v1.0 (Applied Biosystems). […] The investigators analyzing SNPs were blinded to the clinical data.
The primary endpoint in this study was progression-free survival (PFS), and the secondary endpoints were overall survival (OS) and disease control rate (DCR). […]

[1] = ATM rs609429 Any G vs C/C (Ref.), multivariable
[2] = ATM rs609429 Any G vs C/C (Ref.), univariate
[3] = Adjuvant history No vs Yes (Ref.), univariate
[4] = Age ≥61 vs <61 (Ref.), univariate
[5] = CHEK2 rs2267130 Any C vs T/T (Ref.), multivariable
[6] = CHEK2 rs2267130 Any C vs T/T (Ref.), univariate
[7] = CHEK2 rs2267130 C/C vs T/T (Ref.), multivariable
[8] = CHEK2 rs2267130 C/C vs T/T (Ref.), univariate
[9] = CHEK2 rs2267130 T/C vs T/T (Ref.), multivariable
[10] = CHEK2 rs2267130 T/C vs T/T (Ref.), univariate
[11] = KRAS Mutant vs Wild type (Ref.), univariate
[12] = LN metastasis No vs Yes (Ref.), univariate
[13] = Liver metastasis No vs Yes (Ref.), univariate
[14] = Lung metastasis No vs Yes (Ref.), univariate
[15] = Number of metastases >2 vs ≤2 (Ref.), univariate
[16] = Performance status ECOG 1 vs ECOG 0 (Ref.), univariate
[17] = Peritoneal No vs Yes (Ref.), univariate
[18] = Pre-chemo numbers ≥4 vs <4 (Ref.), univariate
[19] = Primary tumor resection No vs Yes (Ref.), univariate

Compound: CNC(=O)c1cc(Oc2ccc(NC(=O)Nc3ccc(Cl)c(C(F)(F)F)c3)c(F)c2)ccn1 [regorafenib]
- Median OS (months) (ATM rs609429 C/C (n=28)): 4.5 months
- Median OS (months) (ATM rs609429 G/C or G/G (n=24)): 5.9 months
- Median OS (months) (XRCC3 rs861539 G/A (n=37)): 5.9 months
- Median PFS (months) (XRCC3 rs861539 G/A (n=37)): 1.9 months
- Median OS (months) (XRCC3 rs861539 G/G (n=15)): 4.1 months
- Median PFS (months) (XRCC3 rs861539 G/G (n=15)): 1.7 months
- association of candidate SNPs with PFS or OS (control cohort receiving regorafenib without previous TAS-102, uni- and multivariate analyses): no significant differences; also recorded: no significant association
- Disease Control CR/PR/SD, patients n (%) (ATM rs609429 Any G): 9 (38%)
- Median OS (95% CI) (ATM rs609429 Any G): 5.9 (3.5, 10.2) months
- Median PFS (95% CI) (ATM rs609429 Any G): 2.0 (1.7, 3.1) months
- PD, patients n (%) (ATM rs609429 Any G): 15 (63%)
- HR OS (95% CI) [1]: 0.84 (0.47, 1.48)
- HR PFS (95% CI) [1]: 1.06 (0.60, 1.87)
- HR OS (95% CI) [2]: 1.91 (0.44, 8.31)
- HR PFS (95% CI) [2]: 0.95 (0.55, 1.66)
- Disease Control CR/PR/SD, patients n (%) (ATM rs609429 C/C): 8 (32%)
- Median OS (95% CI) (ATM rs609429 C/C): 4.6 (2.6, 7.6) months
- Median PFS (95% CI) (ATM rs609429 C/C): 1.9 (1.6, 2.8) months
- PD, patients n (%) (ATM rs609429 C/C): 17 (68%)
- Disease Control CR/PR/SD, patients n (%) (ATM rs609429 C/G): 8 (38%)
- PD, patients n (%) (ATM rs609429 C/G): 13 (62%)
- Disease Control CR/PR/SD, patients n (%) (ATM rs609429 G/G): 1 (33%)
- PD, patients n (%) (ATM rs609429 G/G): 2 (67%)
- Median OS (Adjuvant history No): 5.9 months
- Median PFS (Adjuvant history No): 2.0 months
- HR OS [3]: 0.59
- HR PFS [3]: 0.71
- Median OS (Adjuvant history Yes): 3.9 months
- Median PFS (Adjuvant history Yes): 1.8 months
- Median OS (Age <61): 5.1 months
- Median PFS (Age <61): 1.8 months
- Median OS (Age ≥61): 5.8 months
- Median PFS (Age ≥61): 2.1 months
- HR OS [4]: 0.74
- HR PFS [4]: 0.58
- Disease Control CR/PR/SD, patients n (%) (CHEK2 rs2267130 Any C): 13 (36%)
- Median OS (95% CI) (CHEK2 rs2267130 Any C): 5.9 (4.4, 7.9) months
- Median PFS (95% CI) (CHEK2 rs2267130 Any C): 1.8 (1.7, 2.8) months
- PD, patients n (%) (CHEK2 rs2267130 Any C): 23 (64%)
- HR OS (95% CI) [5]: 0.81 (0.42, 1.54)
- HR PFS (95% CI) [5]: 1.22 (0.65, 2.28)
- HR OS (95% CI) [6]: 0.80 (0.44, 1.48)
- HR PFS (95% CI) [6]: 1.07 (0.58, 1.95)
- Disease Control CR/PR/SD, patients n (%) (CHEK2 rs2267130 C/C): 3 (27%)
- Median OS (95% CI) (CHEK2 rs2267130 C/C): 5.7 (2.0, 7.8) months
- Median PFS (95% CI) (CHEK2 rs2267130 C/C): 2.0 (1.5, 2.7) months
- PD, patients n (%) (CHEK2 rs2267130 C/C): 8 (73%)
- HR OS (95% CI) [7]: 0.90 (0.41, 2.00)
- HR PFS (95% CI) [7]: 1.35 (0.61, 2.99)
- HR OS (95% CI) [8]: 0.89 (0.41, 1.97)
- HR PFS (95% CI) [8]: 1.18 (0.54, 2.59)
- Disease Control CR/PR/SD, patients n (%) (CHEK2 rs2267130 T/C): 10 (40%)
- Median OS (95% CI) (CHEK2 rs2267130 T/C): 6.2 (2.4, 8.9) months
- Median PFS (95% CI) (CHEK2 rs2267130 T/C): 1.8 (1.6, 3.1) months
- PD, patients n (%) (CHEK2 rs2267130 T/C): 15 (60%)
- HR OS (95% CI) [9]: 0.76 (0.38, 1.53)
- HR PFS (95% CI) [9]: 1.15 (0.58, 2.27)
- HR OS (95% CI) [10]: 0.77 (0.40, 1.48)
- HR PFS (95% CI) [10]: 1.02 (0.54, 1.95)
- Disease Control CR/PR/SD, patients n (%) (CHEK2 rs2267130 T/T): 4 (31%)
- Median OS (95% CI) (CHEK2 rs2267130 T/T): 3.8 (2.2, 8.0) months
- Median PFS (95% CI) (CHEK2 rs2267130 T/T): 1.9 (1.4, 3.4) months
- PD, patients n (%) (CHEK2 rs2267130 T/T): 9 (69%)
- Median OS (KRAS Mutant): 4.8 months
- Median PFS (KRAS Mutant): 2.0 months
- HR OS [11]: 0.93
- HR PFS [11]: 1.05
- Median OS (KRAS Wild type): 6.3 months
- Median PFS (KRAS Wild type): 1.9 months
- Median OS (LN metastasis No): 7.7 months
- Median PFS (LN metastasis No): 2.8 months
- HR OS [12]: 0.62
- HR PFS [12]: 0.52
- Median OS (LN metastasis Yes): 3.8 months
- Median PFS (LN metastasis Yes): 1.8 months
- Median OS (Liver metastasis No): 6.6 months
- Median PFS (Liver metastasis No): 4.8 months
- HR OS [13]: 0.61
- HR PFS [13]: 0.46
- Median OS (Liver metastasis Yes): 4.7 months
- Median PFS (Liver metastasis Yes): 1.9 months
- Median OS (Lung metastasis No): 3.7 months
- Median PFS (Lung metastasis No): 2.0 months
- HR OS [14]: 1.24
- HR PFS [14]: 1.17
- Median OS (Lung metastasis Yes): 5.9 months
- Median PFS (Lung metastasis Yes): 1.9 months
- Median OS (Number of metastases >2): 4.0 months
- Median PFS (Number of metastases >2): 1.9 months
- HR OS [15]: 1.59
- HR PFS [15]: 1.86
- Median OS (Number of metastases ≤2): 6.3 months
- Median PFS (Number of metastases ≤2): 2.8 months
- Median OS (Performance status ECOG 0): 5.9 months
- Median PFS (Performance status ECOG 0): 2.1 months
- Median OS (Performance status ECOG 1): 2.4 months
- Median PFS (Performance status ECOG 1): 1.2 months
- HR OS [16]: 2.09
- HR PFS [16]: 2.27
- Median OS (Peritoneal No): 5.5 months
- Median PFS (Peritoneal No): 2.0 months
- HR OS [17]: 0.82
- HR PFS [17]: 0.87
- Median OS (Peritoneal Yes): 5.1 months
- Median PFS (Peritoneal Yes): 1.9 months
- Median OS (Pre-chemo numbers <4): 6.0 months
- Median PFS (Pre-chemo numbers <4): 2.0 months
- Median OS (Pre-chemo numbers ≥4): 4.7 months
- Median PFS (Pre-chemo numbers ≥4): 1.8 months
- HR OS [18]: 1.16
- HR PFS [18]: 0.95
- Median OS (Primary tumor resection No): 4.2 months
- Median PFS (Primary tumor resection No): 2.0 months
- HR OS [19]: 1.04
- HR PFS [19]: 0.79
- Median OS (Primary tumor resection Yes): 5.6 months
- Median PFS (Primary tumor resection Yes): 1.9 months
